According to patent US11672813B2, “Bortezomib compositions” (MAIA Pharmaceuticals, Inc., priority 2021, dated 2023):

Experiments:
[1] = Estimated solubility of bortezomib in select non-aqueous solvents (visual, incremental solvent addition); format: physicochemical; settings: for Observation: approximately 25 mg
Method: The appearance of the solution was recorded.

[2] = Visual dissolution and physical stability of bortezomib formulations with low concentrations of benzyl alcohol or DMSO in water; format: physicochemical; settings: target 2.5 mg/mL; benzyl alcohol (2% v/v), DMSO (5% v/v) or combination, water added afterwards
Method: Initial formulation experiments with low concentrations of various non-aqueous solvents were conducted targeting a bortezomib concentration of 2.5 mg/mL. Attempts to solubilize bortezomib were conducted using low concentrations of benzyl alcohol (2% v/v), or dimethyl sulfoxide (5% v/v), or a combination of these solvents. […] For these formulations, the non-aqueous solvent was added to bortezomib to dissolve it, followed by addition of water to the bortezomib-solvent mixture.
Various concentrations of DMSO were explored as the non-aqueous component of the formulation (2% v/v to 5% v/v in water). Bortezomib was first completely dissolved in the batch volume of DMSO to form a concentrated “premix” solution prior to making up the batch to the target concentration (2.5 mg/mL) with water. This was done to facilitate the subsequent dissolution of bortezomib in the aqueous component.

With `CC(C)C[C@H](NC(=O)[C@H](Cc1ccccc1)NC(=O)c1cnccn1)B(O)O` [Bortezomib, [(1R)-3-methyl-1-[[(2S)-1-oxo-3-phenyl-2-[(pyrazinylcarbonyl)amino]propyl]amino]butyl] boronic acid] the Observation ([1]; N-methyl pyrrolidone (NMP)) was “Completely dissolved after 1 mL”, the “Observation: solvent needed to dissolve approximately 25 mg” value ([1]; alcohol (ethanol)) was “Approximately 5.5 mL of solvent” and the Observation ([1]; benzyl alcohol) was “Completely dissolved after 0.5 mL”. The Observation ([1]; dimethyl sulfoxide (DMSO)) was “Completely dissolved after 0.5 mL”, the Observation ([1]; glycerol, up to 10 mL) was “No significant dissolution observed up” and the Observation ([1]; polyethylene glycol 400, up to 10 mL) was “No significant dissolution observed up”. For the same molecule, the “Observation: solvent needed to dissolve approximately 25 mg” value ([1]; propylene glycol) was “Approximately 7 mL of solvent needed” and the “Outcome of dissolution attempt” value [2] was “precipitated after addition of water”.
